Laboratory results: patent publication US10793566B2, “Bruton's tyrosine kinase inhibitors” (Zibo Biopolar Changsheng Pharmaceutical Co. Ltd., priority 2016, dated 2020)

Assays:
LYN = LYN (Homo sapiens (Human), UniProt P07948); assay: LYN kinase assay (HTRF); format: biochemical; conditions: [ATP]=20 μM, LYN=0.12 nM
Procedure: Btk Kinase Assay and Other Kinases Assay Btk kinase activity was determined using a homogenous time resolved fluorescence (HTRF) methodology. Measurements were performed in a reaction volume of 15 μL using 384-well assay plates. Kinase enzyme, inhibitor, ATP and 1 μM peptide substrate were incubated in a reaction buffer compose of Hepes50 mM (pH7.0), NaN3 0.02%, BSA 0.01%, Orthocanadate 0.1 mM. After one hour, the kinase reaction was quenched by the addition of E t-labeled antibody and XL-665 in 1×Detection buffer containing 60 mM EDTA (Cisbio), and the mixture was allowed to incubate for one hour. The HTRF signal was measured on a multimode plate reader (EnVision Multilabel Reader, Perkin Elmer) with an excitation wavelength (λEx) of 330 nm and detection wavelengths (λEm) of 615 and 665 nm. Activity was determined by the ratio of the fluorescence at 665 nm to that at 615 nm. For each compound, enzyme activity as measured at various concentrations of compound, Negative control reactions were performed in the absence of inhibitor in two replicates and eight no enzyme controls were used to determine baseline fluorescence levels. IC50s were obtained according to the equation: […] For LYN assay, [ATP]=20 μM, LYN=0.12 n M. For LCK assay, [ATP]=20 μM, LCK=0.2 nM. For BLK assay, [ATP]=20 μM, BLK=0.6 n M.

Ramos cells = assay: Calcium flux assay, anti-IgM stimulated Ramos cells; format: cell-based; conditions: Homo sapiens, IgM-induced calcium influx, read-out: Ramos Ca Flux
Procedure: Calcium flux fluorescence-based assays were performed in aFDSS7000EX (Hamamatsu Photonics) fluorometric imaging plate reader according to manufacturer instructions. Compounds to be assayed were dissolved in DMSO, diluted to appropriate concentrations in Ca^2+ buffer ranging from 0 to 10 μM (at a dilution factor of 0.1), added 5 μl (6 X) to each well (the final DMSO concentration was 0.1% in each well). Then 12.5 μL 2× dye loading solution (Fluo-4 NW Calcium Assay Kits, Invitrogen) was added per well of a 384-well plate. Afterwards, actively growing Ramos cells (ATCC) in RPM1640 medium supplemented with 10% FBS (Invitrogen) were washed and re-plated in assay buffer (from Fluo-4 NW Calcium Assay Kits, Invitrogen) to approximately 6.4×10^6/ml (80000 cells/12.5 μL in 384-well plates). The plates were incubated at 37° C. for 30 minutes, then at room temperature for an additional 30 minutes. The plates were now ready to be used in an experiment. Immediately after the transfer and a 10-s recording of baseline fluorescence, the compound treated cells were stimulated with a goat anti-human IgM antibody ([…]; Jackson Immuno Research) and read in a FDSS for 240 seconds. Difference between the signal and that at baseline, designated adjusted relative fluorescence unit, was calculated by using a custom Excel (Microsoft, Redmond, Wash.) template to determine IgM-induced calcium influx and its inhibition by compounds. The table below show the result.

LYN, sequence (P07948 whole entry, species assumed): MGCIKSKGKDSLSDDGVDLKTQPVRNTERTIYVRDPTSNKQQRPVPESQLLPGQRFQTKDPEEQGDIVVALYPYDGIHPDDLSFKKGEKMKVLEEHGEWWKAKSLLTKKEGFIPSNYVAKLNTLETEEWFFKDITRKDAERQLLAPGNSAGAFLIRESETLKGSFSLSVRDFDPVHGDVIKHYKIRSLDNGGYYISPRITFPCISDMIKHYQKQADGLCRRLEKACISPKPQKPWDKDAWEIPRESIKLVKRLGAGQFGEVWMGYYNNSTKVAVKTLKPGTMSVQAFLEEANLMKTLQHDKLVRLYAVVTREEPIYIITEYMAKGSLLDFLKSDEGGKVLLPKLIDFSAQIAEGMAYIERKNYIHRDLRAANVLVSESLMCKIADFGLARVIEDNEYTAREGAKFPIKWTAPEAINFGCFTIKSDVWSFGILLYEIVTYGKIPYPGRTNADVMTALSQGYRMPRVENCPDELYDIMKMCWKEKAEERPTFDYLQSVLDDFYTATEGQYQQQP

C=CC(=O)N1CC[C@@H](n2nc(-c3ccc(Oc4ccccc4)cc3)c3cnccc32)C1 [Example 1, (R)-1-(3-(3-(4-phenoxyphenyl)-1H-pyrazolo[4,3-c]pyridin-1-yl)pyrrolidin-1-yl)prop-2-en-1-one]
IC50 (LYN): ≥ 10 µM | IC50 (Ramos cells): 0.01 to 0.1 µM
